Measurements reported in patent publication US6900231B2, “Aminopyridyl-substituted phenyl acetamides as protease inhibitors” (3-Dimensional Pharmaceuticals, Inc., priority 2000, dated 2005).
Where a name gives a salt, the structure may show the parent alone.

Target: T1, human α-thrombin (Homo sapiens, UniProt P00734)
T1 construct: Human α-thrombin, human factor Xa and human plasmin were obtained from Enzyme Research Laboratories; purchased Enzyme Research Laboratories (South Bend, Ind.)
Assay: In vitro inhibition of purified enzymes: Ki determination, hydrolysis of peptide p-nitroanilide substrate by thrombin
Assay type: biochemical
Source text: Reagents: All buffer salts were obtained from Sigma Chemical Company (St. Louis, Mo.), and were of the highest purity available.
Human α-thrombin, human factor Xa and human plasmin were obtained from Enzyme Research Laboratories (South Bend, Ind.). Bovine α-chymotrypsin (Sigma C4129), bovine trypsin (Sigma T8642) and human kidney cell urokinase (Sigma U5004) were obtained from Sigma. Human leukocyte elastase was obtained from Elastin Products (Pacific, Mo.).
Ki Determinations: All assays are based on the ability of the test compound to inhibit the enzyme catalyzed hydrolysis of a peptide p-nitroanilide substrate. […] The final concentrations for each of the substrates is listed below. In general, substrate concentrations are lower than the experimentally determined value for Km. Test compounds are prepared as a 1.0 mg/ml solution in DMSO. […]
Data corresponding to less than 10% of the total substrate hydrolysis were used in the calculations. The ratio of the velocity (rate of change in absorbance as a function of time) for a sample containing no test compound is divided by the velocity of a sample containing test compound, and is plotted as a function of test compound concentration. The data are fit to a linear regression, and the value of the slope of the line calculated. The inverse of the slope is the experimentally determined Ki value. […]

Ki: 2.8 nM
Structure (SMILES): Cc1nc(N)ccc1CNC(=O)Cc1c(Cl)ccc(NCC(F)(F)c2ccc(F)c3ccccc23)c1F [Example 5, N-[(6-Amino-2-methyl(3-pyridyl))methyl]-2-(3-{[2,2-difluoro-2-(4-fluoronaphthyl)ethyl]amino}-6-chloro-2-fluorophenyl)acetamide Hydrochloride Salt]
